Activity data for 22 compounds are collected here from patent publication US8921576B2, “Spiroindoline compound, and medicinal agent comprising same” (Kowa Company, Ltd., priority 2011, dated 2014).

Each structure is given as a SMILES string.

In the assay the target is T1, GST-GK derived from human liver GK (Homo sapiens, UniProt P35557).
T1 construct: made in house; host or cells: Escherichia coli DH5α
T1 sequence (P35557 1-466 isoform P35557-2): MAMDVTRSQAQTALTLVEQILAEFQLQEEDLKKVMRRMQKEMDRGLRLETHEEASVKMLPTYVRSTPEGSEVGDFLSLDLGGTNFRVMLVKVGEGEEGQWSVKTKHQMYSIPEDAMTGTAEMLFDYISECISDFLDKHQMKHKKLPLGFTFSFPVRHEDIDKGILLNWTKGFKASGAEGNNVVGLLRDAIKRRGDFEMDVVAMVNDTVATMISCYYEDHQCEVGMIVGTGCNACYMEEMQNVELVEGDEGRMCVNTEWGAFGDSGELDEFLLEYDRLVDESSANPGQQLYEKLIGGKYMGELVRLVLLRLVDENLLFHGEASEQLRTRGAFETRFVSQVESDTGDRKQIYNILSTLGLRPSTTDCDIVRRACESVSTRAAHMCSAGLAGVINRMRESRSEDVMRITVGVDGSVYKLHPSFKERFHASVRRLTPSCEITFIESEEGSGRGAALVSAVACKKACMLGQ
Description: In vitro GK activity measurement test (G6PDH-coupled, OD340). The settings on record: test compound 1 μmol/L; glucose 2.5 mmol/L; 25° C.; OD340 slope with compound / without compound; read-out: GK activation rate (%). The assay is classed as biochemical. An excerpt: cDNA (GenBank Accession No. NM_033507, human glucokinase, variant 2) encoding human liver-type GK polypeptide was cloned by performing a polymerase chain reaction (hereinafter referred to as “PCR”) using a human liver cDNA library (Human liver QUICK-Clone cDNA, TAKARA BIO INC.), and the thus cloned cDNA was then introduced into an expression vector (pGEX-3X, GE Healthcare Japan) for glutathione S transferase (hereinafter referred to as GST) fusion protein expression. The resulting vector was introduced into Escherichia coli (Competent high DH5α, Toyobo Co., Ltd.), and the transformed Escherichia coli was then cultured at 37° C. Thereafter, Isopropyl β-D-1-thiogalactopyranoside (final concentration: 1 mmol/L, Sigma Aldrich Japan) was added to the culture, and the obtained mixture was then cultured at 30° C. for 3 hours. Thereafter, a cell mass was recovered. The recovered cell mass was subjected to freezing-and-thawing, and the resulting cell mass was then suspended in phosphate buffer with final concentration of 1% Triton X-100, followed by disintegration with an ultrasonic disruptor. The homogenate was centrifuged at 33,200 rpm at 4° C. for 1 hour. Thereafter, the supernatant was recovered, and a GST-GK fusion protein was then purified using a glutathione column (GSTrap FF, GE Healthcare Japan). The obtained GST-GK fusion protein was divided into some portions each having a small volume, and the thus divided proteins were then preserved at −80° C.
A GK assay method was carried out at 25° C. at a final incubation volume of 100 μL in a flat-bottom 96-well assay plate. An assay buffer comprised 25 mmol/L Hepes buffer (pH 7.1), 25 mmol/L KCl, 2.5 mmol/L or 10 mmol/L D-glucose, 5 mmol/L ATP, 1 mmol/L nicotinamide adenine dinucleotide phosphate (abbreviated as NADP), 2 mmol/L MgCl2, 1 mmol/L dithiothreitol (DTT), 2 units/mL glucose-6 phosphate dehydrogenase (G6PDH), and 1 μg/mL GST-GK derived from human liver GK. ATP, G6PDH, and NADP were purchased from Roche Diagnostics. […] The thus mixed solution was preincubated in an incubator in which the temperature was controlled at 25° C. for 15 minutes. Subsequently, the reaction was initiated by adding 10 μL of the GST-GK solution to the reaction mixture, resulting in a final concentration of 0.1 μg/mL. After initiation of the reaction, an increase in the optical concentration at 340 nm (OD340) was monitored with a microplate spectrophotometer (Varsamax, Molecular Devices Japan K.K.) every 10 seconds over an incubation period of 10 minutes. An inclination of the OD340 increase was defined as raw data. The GK activating rate was indicated as a numerical value obtained from the expression: (Inclination of OD340 increase by addition of the test compound)/(inclination of OD340 increase without addition of the test compound). The results of the GK activating rate obtained at a test compound concentration of 1 μmol/L under the condition of a glucose concentration of 2.5 mmol/L are shown in the following table.
For `CCOC(=O)CCCNC(=O)N1CCC2(C1)CN(C(=O)Nc1ncc(Cl)s1)c1ccc(Cl)cc12` (stereo not shown) [Example 468, Ethyl 4-(5-chloro-1-((5-chlorothiazol-2-yl)carbamoyl)spiro[indoline-3,3′-pyrrolidin]-1′-ylcarboxamido)butanoate], the activity at 1 µM worked out at 405%.

In the case of `CNC(=O)N1CCC2(C1)CN(C(=O)Nc1ncc(Cl)s1)c1ccc(CCCC(=O)N3CCC3)cc12` (stereo not shown) [Example 424, 5-(4-(Azetidin-1-yl)-4-oxobutyl)-N1-(5-chlorothiazol-2-yl)-N1′-methylspiro[indoline-3,3′-pyrrolidine]-1,1′-dicarboxamide], the activity at 1 µM was 438%.

Take `CNC(=S)N1CCC2(C1)CN(C(=O)Nc1ncc(Cl)s1)c1ccc(Cl)cc12` (stereo not shown) [Example 449, 5-Chloro-N-(5-chlorothiazol-2-yl)-1′-(methylcarbamothioyl)spiro[indoline-3,3′-pyrrolidine]-1-carboxamide]: the activity at 1 µM was 633%.

On to `CNC(=O)N1CC[C@@]2(C1)CN(C(=O)Nc1ncc(OC)s1)c1ccc(C#N)cc12` [Example 381, (R)-5-Cyano-N1-(5-methoxythiazol-2-yl)-N1′-methylspiro[indoline-3,3′-pyrrolidine]-1,1′-dicarboxamide], for which the activity at 1 µM is 465%.

As to `O=C(NCCO)N1CCC2(C1)CN(C(=O)Nc1ncc(Cl)s1)c1ccc(Cl)cc12` (stereo not shown) [Example 459, 5-chloro-N1-(5-chlorothiazol-2-yl)-N1′-(2-hydroxyethyl)spiro[indoline-3,3′-pyrrolidine]-1,1′-dicarboxamide], the activity at 1 µM was found to be 537%.

In the case of `NCC(=O)N1CCC2(C1)CN(C(=O)Nc1ncc(Cl)s1)c1ccc(Br)cc12` (stereo not shown) [Example 20, 1′-(2-aminoacetyl)-5-bromo-N-(5-chlorothiazol-2-yl)spiro[indoline-3,3′-pyrrolidine]-1-carboxamide], the activity at 1 µM came to 429%.

As for `COC(=O)N1CCC2(C1)CN(C(=O)Nc1ncc(SCC(=O)N(C)C)s1)c1ccc(Cl)cc12` (stereo not shown) [Example 131, methyl 5-chloro-1-((5-((2-(dimethylamino)-2-oxoethyl)thio)thiazol-2-yl)carbamoyl)spiro[indoline-3,3′-pyrrolidine]-1′-carboxylate], the activity at 1 µM came out at 411%.

With `CCNC(=O)N1CCC2(C1)CN(C(=O)Nc1ncc(Cl)s1)c1ccc(Cl)cc12` (stereo not shown) [Example 379, 5-Chloro-N1-(5-chlorothiazol-2-yl)-N1′-ethylspiro[indoline-3,3′-pyrrolidine]-1,1′-dicarboxamide], the activity at 1 µM was determined as 554%.

For the compound `CNC(=O)N1CCC2(C1)CN(C(=O)Nc1ncc(OC)s1)c1ccc(C(F)(F)F)cc12` (stereo not shown) [Example 439, N1-(5-Methoxythiazol-2-yl)-N1′-methyl-5-(trifluoromethyl)spiro[indoline-3,3′-pyrrolidine]-1,1′-dicarboxamide], the activity at 1 µM was found to be 520%.

Take `COC(=O)N1CC[C@@]2(C1)CN(C(=O)Nc1nc3ccc(OC)nc3s1)c1ccc(S(=O)(=O)N(CCCC(=O)O)Cc3ccccc3)cc12` [Example 342, (S)-4-(N-benzyl-1′-(methoxycarbonyl)-1-((5-methoxythiazolo[5,4-b]pyridin-2-yl)carbamoyl)spiro[indoline-3,3′-pyrrolidin]-5-ylsulfonamido)butyric acid]: the activity at 1 µM turned out to be 420%.

Take `CNC(=O)N1CC[C@@]2(C1)CN(C(=O)Nc1ncc(OC)s1)c1ccc(C(F)(F)F)cc12` [Example 489, (R)—N1-(5-Methoxythiazol-2-yl)-N1′-methyl-5-(trifluoromethyl)spiro[indoline-3,3′-pyrrolidine]-1,1′-dicarboxamide]: the activity at 1 µM was determined as 645%.

For the compound `COC(=O)N1CCC2(C1)CN(C(=O)Nc1ncc(SCCC(=O)N3CCOCC3)s1)c1ccc(Cl)cc12` (stereo not shown) [Example 154, methyl 5-chloro-1-((5-((3-morpholino-3-oxopropyl)thio)thiazol-2-yl)carbamoyl)spiro[indoline-3,3′-pyrrolidine]-1′-carboxylate], the activity at 1 µM came to 473%.

As for `COC(=O)N1CCC2(C1)CN(C(=O)Nc1ncc(SCCCC(=O)NO)s1)c1ccc(Cl)cc12` (stereo not shown) [Example 169, methyl 5-chloro-1-((5-((4-(hydroxyamino)-4-oxobutyl)thio)thiazol-2-yl)carbamoyl)spiro[indoline-3,3′-pyrrolidine]-1′-carboxylate], the activity at 1 µM turned out to be 532%.

For `CNC(=O)N1CC[C@@]2(C1)CN(C(=O)Nc1ncc(Cl)s1)c1ccc(C#N)cc12` [Example 376, (R)—N1-(5-Chlorothiazol-2-yl)-5-cyano-N1′-methylspiro[indoline-3,3′-pyrrolidine]-1,1′-dicarboxamide], the activity at 1 µM was determined as 528%.

Consider `O=C(NCCCO)N1CCC2(C1)CN(C(=O)Nc1ncc(Cl)s1)c1ccc(Cl)cc12` (stereo not shown) [Example 464, 5-chloro-N1-(5-chlorothiazol-2-yl)-N1′-(3-hydroxypropyl)spiro[indoline-3,3′-pyrrolidine]-1,1′-dicarboxamide], for which the activity at 1 µM came out at 526%.

Turning to `COCCN(CC1CC1)S(=O)(=O)c1ccc2c(c1)C1(CCN(C(C)=O)C1)CN2C(=O)Nc1nc2ccc(OC)nc2s1` (stereo not shown) [Example 300, 1′-Acetyl-5-(N-(cyclopropylmethyl)-N-(2-methoxyethyl)sulfamoyl)-N-(5-methoxythiazolo[5,4-b]pyridin-2-yl)spiro[indoline-3,3′-pyrrolidine]-1-carboxamide], the activity at 1 µM is 689%.

`COc1ccc2nc(NC(=O)N3CC4(CCN(C(C)=O)C4)c4cc(S(=O)(=O)NCc5ccccc5OC)ccc43)sc2n1` (stereo not shown) [Example 263, 1′-Acetyl-5-(N-(2-methoxybenzyl)sulfamoyl)-N-(5-methoxythiazolo[5,4-b]pyridin-2-yl)spiro[indoline-3,3′-pyrrolidine]-1-carboxamide]: the activity at 1 µM came out at 597%.

Take `COC(=O)N1CC[C@@]2(C1)CN(C(=O)Nc1ncc(Cl)s1)c1ccc(Br)cc12` [Example 320, (S)-methyl 5-bromo-1-((5-chlorothiazol-2-yl)carbamoyl)spiro[indoline-3,3′-pyrrolidin]-1′-ylcarboxylate]: the activity at 1 µM came to 818%.

For `O=C(NO)N1CCC2(C1)CN(C(=O)Nc1ncc(Cl)s1)c1ccc(Cl)cc12` (stereo not shown) [Example 481, 5-chloro-N1-(5-chlorothiazol-2-yl)-N1′-hydroxyspiro[indoline-3,3′-pyrrolidine]-1,1′-dicarboxamide], the activity at 1 µM amounted to 602%.

On to `COc1ccc2nc(NC(=O)N3CC4(CCN(C(C)=O)C4)c4cc(S(=O)(=O)NCc5cccs5)ccc43)sc2n1` (stereo not shown) [Example 273, 1′-Acetyl-N-(5-methoxythiazolo[5,4-b]pyridin-2-yl)-5-(N-(thiophen-2-ylmethyl)sulfamoyl)spiro[indoline-3,3′-pyrrolidine]-1-carboxamide], for which the activity at 1 µM was 692%.

As for `CNC(=O)CCSc1cnc(NC(=O)N2CC3(CCN(C(=O)OC)C3)c3cc(Cl)ccc32)s1` (stereo not shown) [Example 151, methyl 5-chloro-1-((5-((3-(methylamino)-3-oxopropyl)thio)thiazol-2-yl)carbamoyl)spiro[indoline-3,3′-pyrrolidine]-1′-carboxylate], the activity at 1 µM was 656%.

Take `COC(=O)NCCCSc1cnc(NC(=O)N2CC3(CCN(C(=O)OC)C3)c3cc(Cl)ccc32)s1` (stereo not shown) [Example 455, methyl 5-chloro-1-((5-((3-((methoxycarbonyl)amino)propyl)thio)thiazol-2-yl)carbamoyl)spiro[indoline-3,3′-pyrrolidine]-1′-carboxylate]: the activity at 1 µM was determined as 606%.
